# Results from patent US20260285857A1, “BICYCLIC AND HETEROCYCLIC AMIDE COMPOUNDS” (priority 2024, published 2026).
# Test system: immunoglobulin light chain protein WIL-FL T46L
# Assay: Differential scanning fluorimetry (thermal shift) assay
# Type: binding
# Settings: Table A; temperature shift [Tm]compound-[Tm]vehicle; recombinant WIL-FL T46L
row,Compound,DSF
1,Cc1cc(N2CC[C@](C)(c3ccccc3)C2)cn2nc(C34CC(CO3)C4c3nn[nH]n3)nc12 (stereo partly shown) [Compound 76],***** (>2.5° C.=*****)
2,Cc1cc(N2CC[C@](C)(c3ccccc3)C2)cn2nc(C34CC(CO3)C4N3CC4(CC4)NC3=O)nc12 (stereo partly shown) [Compound 78],***** (>2.5° C.=*****)
3,Cc1cc(N2CC[C@](C)(c3ccccc3)C2)cn2nc(C34CC(CO3)C4N3C(=O)NC(=O)C3(C)C)nc12 (stereo partly shown) [Compound 79],***** (>2.5° C.=*****)
4,Cc1cc(N2CC[C@](C)(c3ccccc3)C2)cn2nc(C34CC(CO3)C4CN)nc12 (stereo partly shown) [Compound 80],***** (>2.5° C.=*****)
5,CCC(=O)NCC1C2COC1(c1nc3c(C)cc(N4CC[C@](C)(c5ccccc5)C4)cn3n1)C2 (stereo partly shown) [Compound 81],***** (>2.5° C.=*****)
6,Cc1cc(N2CC[C@](C)(c3ccccc3)C2)cn2nc(C34CC(CO3)C4Cn3ncnc3C)nc12 (stereo partly shown) [Compound 82],***** (>2.5° C.=*****)
7,Cc1ncn(CC2C3COC2(c2nc4c(C)cc(N5CC[C@](C)(c6ccccc6)C5)cn4n2)C3)n1 (stereo partly shown) [Compound 83],**** (>1.5-2.5° C.=****)
8,Cc1cc(N2CC[C@](C)(c3ccccc3)C2)cn2nc(C34CC(CO3)C4CN3CCNC(=O)C3)nc12 (stereo partly shown) [Compound 84],***** (>2.5° C.=*****)
9,Cc1cc(N2CC[C@](C)(c3ccccc3)C2)cn2nc(C34CC(CO3)C4CC(N)=O)nc12 (stereo partly shown) [Compound 85],***** (>2.5° C.=*****)
10,Cc1cc(N2CC[C@](C)(c3ccccc3)C2)cn2nc(C34CC(CO3)C4Cc3ncnn3C)nc12 (stereo partly shown) [Compound 86],***** (>2.5° C.=*****)
11,Cc1nn(CC2C3COC2(c2nc4c(C)cc(N5CC[C@](C)(c6ccccc6)C5)cn4n2)C3)c(=O)[nH]1 (stereo partly shown) [Compound 87],***** (>2.5° C.=*****)
12,Cc1cc(N2CC[C@](C)(c3ccccc3)C2)cn2nc(C34CC(CO3)C4Cn3cn[nH]c3=O)nc12 (stereo partly shown) [Compound 88],***** (>2.5° C.=*****)
13,Cc1cc(N2CC[C@](C)(c3ccccc3)C2)cn2nc(C34CC(CO3)C4Cn3cnn(C)c3=O)nc12 (stereo partly shown) [Compound 89],***** (>2.5° C.=*****)
14,Cc1cc(N2CC[C@](C)(c3ccccc3)C2)cn2nc(C34CC(CO3)C4Cn3cnc(C(N)=O)n3)nc12 (stereo partly shown) [Compound 90],**** (>1.5-2.5° C.=****)
15,Cc1cc(N2CC[C@](C)(c3ccccc3)C2)cn2nc(C34CC(CO3)C4Cn3cc(C(=O)O)nn3)nc12 (stereo partly shown) [Compound 91],***** (>2.5° C.=*****)
16,Cc1cc(N2CC[C@](C)(c3ccccc3)C2)cn2nc(C34CC(CO3)C4Cn3cc(C(N)=O)nn3)nc12 (stereo partly shown) [Compound 92],***** (>2.5° C.=*****)
17,CCS(=O)(=O)Nc1n[nH]c(C2C3COC2(c2nc4c(C)cc(N5CC[C@](C)(c6ccccc6)C5)cn4n2)C3)n1 (stereo partly shown) [Compound 93],***** (>2.5° C.=*****)
18,Cc1ncn(CC23CC(C(=O)O)(C2)C(c2nc4c(C)cc(N5CC[C@](C)(c6ccccc6)C5)cn4n2)O3)n1 (stereo partly shown) [Compound 94],***** (>2.5° C.=*****)
19,Cc1ncn(CC23CC(C(N)=O)(C2)C(c2nc4c(C)cc(N5CC[C@](C)(c6ccccc6)C5)cn4n2)O3)n1 (stereo partly shown) [Compound 95],***** (>2.5° C.=*****)
20,Cc1cc(OCC2(c3ccccc3)CC2)cn2nc(C34CC(CO3)C4N)nc12 (stereo not shown) [Compound 96],**** (>1.5-2.5° C.=****)
21,Cc1cc(OC[C@H](C)c2ccccc2)cn2nc(C34CC(CO3)C4N)nc12 (stereo partly shown) [Compound 98],*** (>1-1.5° C.=***)
22,Cc1cc(N2CCC(C)(c3nccs3)C2)cn2nc(C(=O)N3CC[C@@]4(CCN(c5cccc(C(=O)O)n5)C4)C3)nc12 (stereo partly shown) [Compound 99],**** (>1.5-2.5° C.=****)
23,Cc1cc(N2CC[C@](C)(c3ccccc3)C2)cn2nc(C(=O)NCC(C)(C)O)nc12 [Compound 100],***** (>2.5° C.=*****)

row,Compound,DSF
1,Cc1cc(N2CC[C@](C)(c3ccccc3)C2)cn2nc(C(=O)NC3CCNC3)nc12 (stereo partly shown) [Compound 101],***** (>2.5° C.=*****)
2,Cc1cc(N2CC[C@](C)(c3ccccc3)C2)cn2nc(C(=O)N[C@@H]3CCNC3)nc12 [Compound 102],***** (>2.5° C.=*****)
3,Cc1cc(N2CC[C@](C)(c3ccccc3)C2)cn2nc(C(=O)N(C)[C@H]3CCNC3)nc12 [Compound 103],***** (>2.5° C.=*****)
4,Cc1cc(N2CC[C@](C)(c3ccccc3)C2)cn2nc(C(=O)NC3CCC(O)(C(F)(F)F)C3)nc12 (stereo partly shown) [Compound 104],***** (>2.5° C.=*****)
5,Cc1cc(N2CC[C@](C)(c3ccccc3)C2)cn2nc(C(=O)N[C@H]3CC[C@H](O)C3)nc12 [Compound 105],***** (>2.5° C.=*****)
6,Cc1cc(N2CC[C@](C)(c3ccccc3)C2)cn2nc(C(=O)NCC3(O)COC3)nc12 [Compound 106],***** (>2.5° C.=*****)
7,COC(C)(C)CNC(=O)c1nc2c(C)cc(N3CC[C@](C)(c4ccccc4)C3)cn2n1 [Compound 107],***** (>2.5° C.=*****)
8,CCC(=O)N1CC(O)C(NC(=O)c2nc3c(C)cc(N4CC[C@](C)(c5ccccc5)C4)cn3n2)C1 (stereo partly shown) [Compound 108],***** (>2.5° C.=*****)
9,Cc1cc(N2CC[C@](C)(c3ccccc3)C2)cn2nc(C(=O)NC3CCS(=O)(=O)C3)nc12 (stereo partly shown) [Compound 109],***** (>2.5° C.=*****)
10,Cc1cc(N2CC[C@](C)(c3ccccc3)C2)cn2nc(C(=O)NC3CN(CC(=O)O)CC3O)nc12 (stereo partly shown) [Compound 110],***** (>2.5° C.=*****)
11,Cc1cc(N2CC[C@](C)(c3ccccc3)C2)cn2nc(C(=O)NC34CCC(O)(C3)C4)nc12 [Compound 111],***** (>2.5° C.=*****)
12,Cc1cc(N2CC[C@](C)(c3ccccc3)C2)cn2nc(C(=O)NC3CC4(C3)CC(C(=O)O)C4)nc12 (stereo partly shown) [Compound 112],***** (>2.5° C.=*****)
13,Cc1cc(N2CC[C@](C)(c3ccccc3)C2)cn2nc(C(=O)N3CCC4(COC4)C3)nc12 [Compound 113],***** (>2.5° C.=*****)
14,Cc1cc(N2CC[C@](C)(c3ccccc3)C2)cn2nc(C(=O)N(C)[C@@H]3CCNC3)nc12 [Compound 114],***** (>2.5° C.=*****)
15,Cc1cc(N2CC[C@](C)(c3ccccc3)C2)cn2nc(C(=O)N3C[C@@H](O)[C@@H](O)C3)nc12 [Compound 115],***** (>2.5° C.=*****)
16,Cc1cc(N2CC[C@](C)(c3ccccc3)C2)cn2nc(C(=O)NCC3(O)CCOCC3)nc12 [Compound 116],***** (>2.5° C.=*****)
17,Cc1cc(N2CC[C@](C)(c3ccccc3)C2)cn2nc(C(=O)NC3CNCC3O)nc12 (stereo partly shown) [Compound 117],***** (>2.5° C.=*****)
18,Cc1cc(N2CC[C@](C)(c3ccccc3)C2)cn2nc(C(=O)NC3CCOC3)nc12 (stereo partly shown) [Compound 118],***** (>2.5° C.=*****)
19,Cc1cc(N2CC[C@](C)(c3ccccc3)C2)cn2nc(C(=O)NCCN3C[C@H](O)[C@@H](O)C3)nc12 [Compound 119],***** (>2.5° C.=*****)
20,Cc1cc(N2CC[C@](C)(c3ccccc3)C2)cn2nc(C(=O)NCC3(O)CC3)nc12 [Compound 120],***** (>2.5° C.=*****)
21,Cc1cc(N2CC[C@](C)(c3ccccc3)C2)cn2nc(C(=O)N[C@H]3COC[C@@H]3F)nc12 [Compound 121],***** (>2.5° C.=*****)
22,Cc1cc(N2CC[C@](C)(c3ccccc3)C2)cn2nc(C(=O)NCC34COC(C3)C4)nc12 [Compound 122],***** (>2.5° C.=*****)
23,Cc1cc(N2CC[C@](C)(c3ccccc3)C2)cn2nc(C(=O)NC34COC(C(C)(C)O)(C3)C4)nc12 [Compound 123],***** (>2.5° C.=*****)
